Reference: patent US20150366839A1, “Schisantherin A for the treatment of neurodegenerative diseases” (priority 2014, published 2015)

How the values were obtained:
[1] = system: iNOS; assay: iNOS expression, Western blot; format: cell-based, Human
Description: After treatment, SH-SY5Y cells were washed three times with PBS and then lysis with RIPA lysis buffer containing 1% PMSF and 1% Protease Inhibitor Cocktail and incubated for 30 min on ice. Cell lysates were centrifuged at 12,500 g for 20 min at 4° C. The supernatant was separated and the amount of protein was determined using the BCA protein assay kit (Thermo Scientific Pierce, USA). Protein samples (30 μg) were separated by SDS-PAGE (10% (w/v)) polyacrylamide gel and then transferred to a polyvinylidene difluoride (PVDF) membrane (Bio-Rad, Hercules, Calif.). Subsequently, the membrane was blocked with 5% (v/v) non-fat milk in PBST (PBS containing 0.1% Tween 20) for 1 h at room temperature. The blots were incubated overnight at 4° C. with primary antibodies. […] Quantitative assessment of protein bands was done with Gel Doc™ XRS equipped with Quantity One software.
Augmented NO production subsequent to iNOS induction appears to play an important role in the initial phase of 6-OHDA-induced neuro-damage models in vitro and in vivo (Singh, Das et al. 2005; Lin, Uang et al. 2007; Shih, Chen et al. 2011). […] Expression of the total iNOS proteins were determined by Western blot analysis. […] Results of FIGS. 4A-C are expressed as a percentage of relative fluorescent intensity (RFI) of the Control group. ###P<0.005 versus control group; *p<0.05, **p<0.01 and *** p<0.005 versus 6-OHDA group. […]

[2] = system: SH-SY5Y cells; assay: MTT neuroprotection against MPP+-induced cell damage; format: cell-based
Description: Human neuroblastoma SH-SY5Y cells were purchased from the American Type Culture Collection (ATCC, Manassas, Va., USA) and cultured in a humidified 5% (v/v) CO2 atmosphere in 37° C. in Dulbecco's Modified Eagle Medium (DMEM) (Life technologies, NY, USA) supplemented with 10% FBS, 1% penicillin (100 U/mL) and streptomycin (100 μg/mL). All experiments were carried out 48 h after the cells were seeded.
In another study, SH-SY5Y cells were seeded in 96-well plates (1×10^4 cells/well) for 48 h. SH-SY5Y cells were pre-treated with different concentrations of the five lignans for 12 h and the cell viability was checked by MTT assay. SH-SY5Y cells were pre-treated with different concentrations of the five lignans for 12 h and then exposed to 2 mM MPP or vehicle for 36 h. Cells were incubated at 37° C. for 4 h in 0.5 mg/mL MTT solution (prepared in serum free DMEM medium). The medium was then discarded and 100 μL of DMSO was added to each well to dissolve the violet-formazan crystals. The absorbance at 570 nm with 655 nm as a reference wavelength was measured by a multi-label counter (Wallac VICTOR3TMV, Perkin Elmer, Netherlands). Cell viability was expressed as a percentage of the value of the cells without MPP treatment. The LC50 and EC50 were calculated by GraphPad Prism V5.0 (GraphPad Software, Inc., San Diego, Calif.).
To evaluate the cytotoxicity of five selected lignans of S. chinensis, SH-SY5Y cells were treated with various concentrations of the tested compounds for 12 h and the cell viability was measured using the MTT assay. […] To further study the neuroprotective activities of the five lignans in vitro, cells were treated with various concentrations of the tested compounds for 12 h before exposed to MPP^+. […] Values represent mean±S.D. ###P<0.005 versus control group; *p<0.05, **p<0.01 and *** p<0.005 versus MPP group. […] The therapeutic index of SchiA and SC were 14.9 and 8.8, respectively.
The inventors also investigated the contribution of the PI3K/Akt pathway in the neuroprotective effects of SchiA. The inventors measured phosphorylation-Akt (p-Akt) levels after pre-treated with 60 μM SchiA for 12 h and then exposed to 2 mM MPP for another 36 h. […] And MPP^+-induced down-regulation of Akt expressions was inhibited by SchiA treatment. […] To further validate whether the activation of PI3K/Akt signaling pathway, the inventors determined the blocking effect of PI3K/Akt inhibitor such as AKT inhibitor IV on the in vitro neuroprotective effect of SchiA. SH-SY5Y cells were pre-incubated with Akt inhibitor IV (2 μM) for 1 h and then treated with SchiA for 12 h. Drug-treated cells were further treated with 2 mM MPP for another 36 h, MTT assay was used to determinate cell viability.

[3] = system: caspase-3; assay: Caspase-3 activity assay (EnzChek kit); format: cell-based, Human; conditions: 60 μM 12 h, then 2 mM MPP+ 36 h
Description: Caspase-3 activity was detected using the EnzChek® Caspase-3 Assay Kit according to the manufacturer's protocol. In brief, the reaction mixture (total volume 100 μL) contained 50 μL of cell lysate and 50 μL of caspase-3 substrate (Z-DEVD-R110 substrate; the final concentration is […]) in assay buffer, and the assay was carried out in a 96-well plate. To account for non-specific hydrolysis of substrate, the samples were incubated at room temperature for approximately 30 minutes and measured the fluorescence (excitation/emission˜496/520 nm).
The inventors performed Western blot to measure the expression of active-form of caspase-3 and caspase-7 in SH-SY5Y cells. Cells were pretreated with 60 μM SchiA for 12 h and then treated with 2 mM MPP for another 36 h. Cells were lysed and examined by western blot. […] Caspase-3 activity was expressed as units per mg protein. ###p<0.005 versus control group; *p<0.05, **p<0.01 and *** p<0.005 versus MPP+ group.

COc1cc2c(c(OC)c1OC)-c1c(cc3c(c1OC)OCO3)C[C@H](C)[C@](C)(O)[C@H]2OC(=O)c1ccccc1 [SchiA, Schisantherin A]
6-OHDA-induced iNOS expression ([1]; 60 μM 12 h, then 400 μM 6-OHDA 2 h): reduced the expression of iNOS induced by 6-OHDA significantly | iNOS expression, compound alone ([1]; 60 μM, without 6-OHDA): no obvious influence | EC50 ([2]; pre-treated 12 h, then 2 mM MPP+ 36 h): 8.1 µM | protection against MPP+-induced cell damage (cell viability) ([2]; various concentrations 12 h before MPP+): protect against MPP^+-induced cell damage in a dose-dependent manner | MPP+-induced elevation of caspase-3 activity [3]: dramatically suppressed
